Reference: patent US11851445B2, “Compounds and uses thereof” (Foghorn Therapeutics Inc., priority 2020, dated 2023)

How the values were obtained:
[1] = Interconversion between Enantiomer 1 and Enantiomer 2 in cell medium, chiral LC/MS-MS; type: physicochemical; conditions: 0.2 μM, 37° C.
Procedure: For the assessment of interconversion between Enantiomer 1 and Enantiomer 2 in cell medium, the following test was performed. […] At designated time point, aliquot (50 μL) was taken and processed by the addition of 150 μL of acetonitrile containing 0.1% formic acid and internal standard for LC/MS-MS analysis. Peak areas of both Enantiomer 1 and Enantiomer 2 were determined for each sample using a chiral specific analytical method.

BRD9 [2] = target: T1, BRD9 (Homo sapiens, UniProt Q9H8M2); assay: Pharmacodynamic BRD9 level in SYO-1 xenograft tumors, western blot (Example 14); type: in vivo; parameters: degradation endogenous BRD9 protein in two synovial sarcoma cell lines; endogenous in cells; host or cells: SYO1 (SYO-1) synovial sarcoma cells; conditions: for pharmacodynamic activity assessed by BRD9 protein level: BALB/c Nude mice, i.v. single dose, FIG. 23; for BRD9 protein degradation in tumor: single dose, tumors up to 72 hours
T1 sequence (Q9H8M2 1-597): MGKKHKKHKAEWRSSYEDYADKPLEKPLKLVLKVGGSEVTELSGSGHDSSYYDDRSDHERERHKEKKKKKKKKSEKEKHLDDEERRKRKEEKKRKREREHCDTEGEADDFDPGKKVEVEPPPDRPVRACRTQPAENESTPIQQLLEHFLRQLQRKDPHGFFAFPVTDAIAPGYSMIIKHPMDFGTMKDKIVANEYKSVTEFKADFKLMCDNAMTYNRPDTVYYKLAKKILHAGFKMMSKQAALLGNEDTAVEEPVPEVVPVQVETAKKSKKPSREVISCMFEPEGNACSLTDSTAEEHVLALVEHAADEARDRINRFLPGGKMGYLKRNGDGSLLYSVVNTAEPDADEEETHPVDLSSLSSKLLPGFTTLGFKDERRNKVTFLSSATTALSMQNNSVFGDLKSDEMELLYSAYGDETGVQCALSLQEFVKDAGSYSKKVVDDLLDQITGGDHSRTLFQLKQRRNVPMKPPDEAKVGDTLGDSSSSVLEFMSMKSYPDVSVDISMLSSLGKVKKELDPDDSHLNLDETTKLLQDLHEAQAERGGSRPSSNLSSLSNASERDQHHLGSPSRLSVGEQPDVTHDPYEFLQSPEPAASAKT

BRD9 [3] = target: T1, BRD9; assay: BRD9 degradation in ASKA cells, western blot dose response; type: cell-based; parameters: degradation endogenous BRD9 protein in two synovial sarcoma cell lines; endogenous in cells; host or cells: ASKA synovial sarcoma cells; conditions: for DC50: read-out: Fitted DC50
Procedure: Method. […] Cells were then harvested, washed with cold PBS, and frozen in cell pellets at −80° C. Lysates were prepared by resuspending thawed pellets in 1×RIPA Lysis and Extraction buffer (Thermo Fisher, Cat #89900) with 1× Halt™ Protease and Phosphatase Inhibitor Cocktail, EDTA-free (Thermo Fisher, Cat #78441) and 1:1000 dilution Pierce™ Universal Nuclease for Cell Lysis 25ku (Thermo Fisher, Cat #88700). Lysates were incubated on ice for 10 minutes and then centrifuged in 4° C. at maximum speed (15,000 rpm) for 10 minutes. Samples were then analyzed for total protein using BCA protein quantification assay and diluted to 1 μg/μL with lysis buffer and 1× NuPAGE™ LDS Sample Buffer (4×) (Thermo Fisher, Cat #NP0007) and 1×DTT from 30× stock (Cell Signaling Technologies, Cat #14265S). Samples with 20-25 ug of total protein were loaded into 4-12% Bis-Tris Mini-Gel with 1×MES Running buffer and run at 150V for 45 minutes. Gels were transferred using Trans-Blot® Turbo™ Transfer System (semi-dry) at 25V for 10 minutes (High MW setting) on nitrocellulose blots. Blots were blocked in 5% milk in TBST for 1 hour and probed with BRD9 antibody (Bethyl Labs, Cat #A303-781A, 1:750 for SYO1, and Cell Signaling Technologies, Cat #71232S for ASKA) and beta-Actin antibody (Cell Signaling Technologies, Cat #3700, 1:2000) overnight at 4° C. The next day, blots were washed in TBST 3× and probed with 1:5000 IRDye® 680LT Goat anti-Rabbit IgG Secondary Antibody (LiCOR, Cat #926-68021) and 1:10000 IRDye® 800CW Goat anti-Mouse IgG Secondary Antibody (LiCOR, Cat #926-32210) in LiCOR Odyssey® Blocking Buffer (TBS) for 1 hour at room temperature. Blots were washed in TBST 3× and scanned at […] wavelength using LiCOR Odyssey® CLx Imaging System. Western blot signal was quantified using same analyses program included in the same machine. BRD9 signal was quantified by normalizing to beta-actin signal and all samples were normalized to DMSO, set as 100% signal.

BRD9 [4] = target: T1, BRD9; assay: BRD9 degradation in SYO-1 cells, western blot dose response; type: cell-based; parameters: degradation endogenous BRD9 protein in two synovial sarcoma cell lines; endogenous in cells; host or cells: SYO1 (SYO-1) synovial sarcoma cells; conditions: for DC50: read-out: Fitted DC50
Procedure: Method. Synoial sarcoma cells were plated in 6-well plate at 500-100 k cells/well and treated with serial concentrations of BRD9 degrader (10 nM top concentration, diluted 1:3) the next day for two time points at 37° C. Cells were then harvested, washed with cold PBS, and frozen in cell pellets at −80° C. Lysates were prepared by resuspending thawed pellets in 1×RIPA Lysis and Extraction buffer (Thermo Fisher, Cat #89900) with 1× Halt™ Protease and Phosphatase Inhibitor Cocktail, EDTA-free (Thermo Fisher, Cat #78441) and 1:1000 dilution Pierce™ Universal Nuclease for Cell Lysis 25ku (Thermo Fisher, Cat #88700). Lysates were incubated on ice for 10 minutes and then centrifuged in 4° C. at maximum speed (15,000 rpm) for 10 minutes. Samples were then analyzed for total protein using BCA protein quantification assay and diluted to 1 μg/μL with lysis buffer and 1× NuPAGE™ LDS Sample Buffer (4×) (Thermo Fisher, Cat #NP0007) and 1×DTT from 30× stock (Cell Signaling Technologies, Cat #14265S). Samples with 20-25 ug of total protein were loaded into 4-12% Bis-Tris Mini-Gel with 1×MES Running buffer and run at 150V for 45 minutes. Gels were transferred using Trans-Blot® Turbo™ Transfer System (semi-dry) at 25V for 10 minutes (High MW setting) on nitrocellulose blots. Blots were blocked in 5% milk in TBST for 1 hour and probed with BRD9 antibody (Bethyl Labs, Cat #A303-781A, 1:750 for SYO1, and Cell Signaling Technologies, Cat #71232S for ASKA) and beta-Actin antibody (Cell Signaling Technologies, Cat #3700, 1:2000) overnight at 4° C. The next day, blots were washed in TBST 3× and probed with 1:5000 IRDye® 680LT Goat anti-Rabbit IgG Secondary Antibody (LiCOR, Cat #926-68021) and 1:10000 IRDye® 800CW Goat anti-Mouse IgG Secondary Antibody (LiCOR, Cat #926-32210) in LiCOR Odyssey® Blocking Buffer (TBS) for 1 hour at room temperature. Blots were washed in TBST 3× and scanned at […] wavelength using LiCOR Odyssey® CLx Imaging System. Western blot signal was quantified using same analyses program included in the same machine. BRD9 signal was quantified by normalizing to beta-actin signal and all samples were normalized to DMSO, set as 100% signal.

[5] = tested on: non-synovial control cancer cell lines (RD, HCT116, and Calu6); assay: Growth of non-synovial control cancer cell lines, crystal violet, day 14 (Example 3); type: cell-based; conditions: FIG. 8
Procedure: (§1) Procedure: Cells were seeded into 6-well or 12-well plates and were treated daily with a BRD9 degrader (Compound 1), a bromo-domain BRD9 binder (Compound 2), E3 ligase binder (lenalidomide), DMSO, or staurosporin (positive control for cell killing), at indicated concentrations. The number of cells was optimized for each cell line. Growth media was refreshed every 5 days. By day 14, medium was removed, cells were washed with PBS, and stained using 500 μL of 0.005% (w/v) crystal violet solution in 25% (v/v) methanol for at least 1 hour at room temperature. Subsequently plates were scanned on an Odyssey CLx Imaging system.

[6] = tested on: synovial sarcoma cell lines (SYO1, HS-SY-II, and ASKA); assay: Growth of synovial sarcoma cell lines, crystal violet, day 14 (Example 3); type: cell-based; conditions: SYO1, HS-SY-II, ASKA; day 14; FIG. 7
Procedure: as §1

[7] = tested on: non-synovial control cancer cell lines (293T, A549, G401); assay: Growth of non-synovial control cancer cell lines (Example 2); type: cell-based; conditions: FIGS. 4, 5, 6
Procedure: (§2) Cells were treated with DMSO or the BRD9 degrader, Compound 1, at indicated concentrations, and proliferation was monitored from day 7 to day 14 by measuring confluency over time using an IncuCyte live cell analysis system (FIG. 4). Growth medium and compounds were refreshed every 3-4 days.
(§3) Cells were seeded into 12-well plates and treated with DMSO, 1 μM BRD9 inhibitor, Compound 2 (also known as BI-7273, see Martin et al, J Med Chem. 59(10):4462-4475 (2016); see structure of compound 2 below), or 1 μM BRD9 degrader, Compound 1.
(§4) The number of cells was optimized for each cell line. Growth medium and compounds were refreshed every 3-5 days. SYO1, Yamato, A549, 293T and HS-SY-II cells were fixed and stained at day 11. ASKA cells were fixed and stained at day 23. Staining was done by incubation with crystal violet solution (0.5 g Crystal Violet, 27 ml 37% Formaldehyde, 100 mL 10×PBS, 10 mL Methanol, 863 dH20 to 1 L) for 30 min followed by 3× washes with water and drying the plates for at least 24 h at room temperature. Subsequently plates were scanned on an Odyssey CLx Imaging system (FIG. 5).
(§5) Cells were seeded into 96-well ultra-low cluster plate (Costar, #7007) in 200 μL complete media and treated at day 2 with DMSO, Staurosporin, or BRD9 degrader, Compound 1, at indicated doses (FIG. 2C). Media and compounds were changed every 5 d and cell colonies were imaged at day 14.

[8] = tested on: synovial sarcoma cell lines (SYO1, Yamato, HS-SY-II, and ASKA); assay: Growth of synovial sarcoma cell lines (Example 2: confluency, crystal violet, colonies); type: cell-based; conditions: FIGS. 4, 5, 6
Procedure: as §2, §3, §4, §5

SMILES: COc1cc(-c2cn(C)c(=O)c3cnc(N4CCC4)cc23)cc(OC)c1CN1CCC(CN2CCC3(CC2)CN(c2ccc4c(c2)C(=O)N(C2CCC(=O)NC2=O)C4)C3)CC1 (single isomer, unassigned; enantiomer 1) [Enantiomer 1]
- Mean peak area ratio of Enantiomer 2 over Enantiomer 1 peak area ratio ([1]; Enantiomer 1 Dosing, 0 h): 0.0
- Mean peak area ratio of Enantiomer 2 over Enantiomer 1 peak area ratio ([1]; Enantiomer 1 Dosing, 0.5 h): 0.0
- % Enantiomer 2 ([1]; Enantiomer 1 Dosing, 2 h): 12%
- Mean peak area ratio of Enantiomer 2 over Enantiomer 1 peak area ratio ([1]; Enantiomer 1 Dosing, 2 h): 0.13
- % Enantiomer 2 ([1]; Enantiomer 1 Dosing, 6 h): 30%
- Mean peak area ratio of Enantiomer 2 over Enantiomer 1 peak area ratio ([1]; Enantiomer 1 Dosing, 6 h): 0.43
- pharmacodynamic activity assessed by BRD9 protein level (BRD9 [2]): inactive
- BRD9 protein degradation in tumor (BRD9 [2]): did not degrade BRD9 protein
- DC50 (BRD9 [3]; 0.5 h): > 10 nM
- BRD9 degradation activity (BRD9 [3]; 30 minutes, up to 10 μM): no discernable activity
- DC50 (BRD9 [3]; 2 h): 0.38 nM
- DC50 (BRD9 [4]; SYO-1, 1 h): 2.8 nM
- DC50 (BRD9 [4]; SYO-1, 6 h): 0.066 nM

SMILES: COc1cc(-c2cn(C)c(=O)c3cnc(N4CCC4)cc23)cc(OC)c1CN1CCC(CN2CCC3(CC2)CN(c2ccc4c(c2)C(=O)N(C2CCC(=O)NC2=O)C4)C3)CC1 (single isomer, unassigned; enantiomer 2) [Enantiomer 2]
- % Enantiomer 2 ([1]; Enantiomer 2 Dosing, 0 h): 99%
- Mean peak area ratio of Enantiomer 1 over Enantiomer 2 peak area ratio ([1]; Enantiomer 2 Dosing, 0 h): 0.01
- % Enantiomer 2 ([1]; Enantiomer 2 Dosing, 0.5 h): 95%
- Mean peak area ratio of Enantiomer 1 over Enantiomer 2 peak area ratio ([1]; Enantiomer 2 Dosing, 0.5 h): 0.06
- % Enantiomer 2 ([1]; Enantiomer 2 Dosing, 2 h): 82%
- Mean peak area ratio of Enantiomer 1 over Enantiomer 2 peak area ratio ([1]; Enantiomer 2 Dosing, 2 h): 0.22
- % Enantiomer 2 ([1]; Enantiomer 2 Dosing, 6 h): 63%
- Mean peak area ratio of Enantiomer 1 over Enantiomer 2 peak area ratio ([1]; Enantiomer 2 Dosing, 6 h): 0.60
- potency compared with racemic compound D1 (BRD9 [2]): equipotent to racemic compound D1
- pharmacodynamic activity assessed by BRD9 protein level (BRD9 [2]): significant activity
- BRD9 protein degradation in tumor (BRD9 [2]): degraded BRD9 up to 72 hours after a single dose
- DC50 (BRD9 [3]; 0.5 h): 0.34 nM
- difference in DC50 between Enantiomer 1 and Enantiomer 2 (BRD9 [3]; 2 h): about 32 fold
- DC50 (BRD9 [3]; 2 h): 0.012 nM
- difference in DC50 between Enantiomer 1 and Enantiomer 2 (BRD9 [4]; SYO1, 6 h): ca. 3 fold
- BRD9 degradation compared with racemic compound D1 (BRD9 [4]; SYO-1, 1 or 6 hours, FIGS. 16 and 17): slightly better than its racemic parent compound D1
- DC50 (BRD9 [4]; SYO-1, 1 h): 0.092 nM
- DC50 (BRD9 [4]; SYO-1, 6 h): 0.023 nM

SMILES: COc1cc(-c2cn(C)c(=O)c3cnccc23)cc(OC)c1CN(C)C [Compound 2, BI-7273]
- growth of the cells [5]: did not result in inhibition of the growth
- growth of the cells [6]: inhibition of the growth of the cells
- growth of the cells [7]: does not result in inhibition of the growth
- growth of the cells [8]: inhibition of the growth of the cells
